Data as given in patent US10253002B2, “Compounds and methods of treating infections” (Neoculi Pty Ltd., priority 2013, dated 2019).
Values after ≈ are worked out from the molar mass of the structure shown. Read-outs that look alike come from different tables or passages of the source.

How the values were obtained:
MRSA = assay: Broth microdilution MIC, Example 7 (NCL812 and analogues); format: cell-based, Staphylococcus aureus
Outline: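 Values are MICs in μg/ml from broth microdilution per CLSI, with growth scored against a drug-free well.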

Escherichia coli = assay: as above; format: cell-based
[1] = Staphylococcus aureus, MRSA, MRSA 616, Phase I, 1st, read-out: MIC
[2] = Staphylococcus aureus, MRSA, MRSA 718, Phase I, 2nd, read-out: MIC
[3] = Staphylococcus aureus, MRSA, MRSA 747, Phase I, 1st, read-out: MIC
[4] = Escherichia coli, read-out: MIC (μg/ml) at 24 hours, E. coli, 24 hours, 1st and 2nd replicate rows

CC1(C)S[C@@H]2[C@H](NC(=O)[C@H](N)c3ccccc3)C(=O)N2[C@H]1C(=O)O [Ampicillin]
MIC (MRSA; MRSA 610, Phase I, 2nd): 128 µg/mL (≈ 366 µM) | MIC (MRSA; MRSA 713, Phase II, 1st): 128 µg/mL (≈ 366 µM) | MIC (MRSA; MRSA 713, Phase II, 2nd): 128 µg/mL (≈ 366 µM) | MIC (MRSA; MRSA 778, Phase II, 1st): 128 µg/mL (≈ 366 µM) | MIC (MRSA; MRSA 778, Phase II, 2nd): 128 µg/mL (≈ 366 µM) | MIC (MRSA; MRSA 823, Phase II, 1st): 128 µg/mL (≈ 366 µM) | MIC (MRSA; MRSA 823, Phase II, 2nd): 128 µg/mL (≈ 366 µM) | MIC (MRSA; MRSA 844, Phase I, 1st): 128 µg/mL (≈ 366 µM) | MIC (MRSA; MRSA 844, Phase I, 2nd): 128 µg/mL (≈ 366 µM) | MIC (MRSA; Staphylococcus aureus, MRSA, 24 h, read-out: MIC (μg/ml) at 24 hours, MRSA 1, isolate MRSA 1, 24 hours, 1st and 2nd replicate rows): > 128 µg/mL | MIC (MRSA; Staphylococcus aureus, MRSA, 24 h, read-out: MIC (μg/ml) at 24 hours, MRSA 2, isolate MRSA 2, 24 hours, 1st and 2nd replicate rows): 16 µg/mL (≈ 45.8 µM) | MIC (MRSA; Staphylococcus aureus, MRSA, MRSA 516, Phase I, 1st, read-out: MIC): 32 µg/mL (≈ 91.6 µM) | MIC (MRSA; Staphylococcus aureus, MRSA, MRSA 516, Phase I, 2nd, read-out: MIC): 32 µg/mL (≈ 91.6 µM) | MIC (MRSA; Staphylococcus aureus, MRSA, MRSA 516, Phase II, 1st, read-out: MIC): 32 µg/mL (≈ 91.6 µM) | MIC (MRSA; Staphylococcus aureus, MRSA, MRSA 516, Phase II, 2nd, read-out: MIC): 16 µg/mL (≈ 45.8 µM) | MIC (MRSA; Staphylococcus aureus, MRSA, MRSA 570, Phase I, 1st, read-out: MIC): > 128 µg/mL | MIC (MRSA; Staphylococcus aureus, MRSA, MRSA 570, Phase I, 2nd, read-out: MIC): > 128 µg/mL | MIC (MRSA; Staphylococcus aureus, MRSA, MRSA 570, Phase II, 1st, read-out: MIC): > 128 µg/mL | MIC (MRSA; Staphylococcus aureus, MRSA, MRSA 570, Phase II, 2nd, read-out: MIC): > 128 µg/mL | MIC (MRSA; Staphylococcus aureus, MRSA, MRSA 580, Phase I, 1st, read-out: MIC): > 128 µg/mL | MIC (MRSA; Staphylococcus aureus, MRSA, MRSA 580, Phase I, 2nd, read-out: MIC): > 128 µg/mL | MIC (MRSA; Staphylococcus aureus, MRSA, MRSA 580, Phase II, 1st, read-out: MIC): > 128 µg/mL | MIC (MRSA; Staphylococcus aureus, MRSA, MRSA 580, Phase II, 2nd, read-out: MIC): > 128 µg/mL | MIC (MRSA; Staphylococcus aureus, MRSA, MRSA 606, Phase I, 1st, read-out: MIC): 32 µg/mL (≈ 91.6 µM) | MIC (MRSA; Staphylococcus aureus, MRSA, MRSA 606, Phase I, 2nd, read-out: MIC): 32 µg/mL (≈ 91.6 µM) | MIC (MRSA; Staphylococcus aureus, MRSA, MRSA 606, Phase II, 1st, read-out: MIC): 32 µg/mL (≈ 91.6 µM) | MIC (MRSA; Staphylococcus aureus, MRSA, MRSA 606, Phase II, 2nd, read-out: MIC): 32 µg/mL (≈ 91.6 µM) | MIC (MRSA; Staphylococcus aureus, MRSA, MRSA 610, Phase II, 1st, read-out: MIC): 32 µg/mL (≈ 91.6 µM) | MIC (MRSA; Staphylococcus aureus, MRSA, MRSA 610, Phase II, 2nd, read-out: MIC): 32 µg/mL (≈ 91.6 µM) | MIC (MRSA; [1]): 64 µg/mL (≈ 183 µM) | MIC (MRSA; Staphylococcus aureus, MRSA, MRSA 616, Phase I, 2nd, read-out: MIC): 64 µg/mL (≈ 183 µM) | MIC (MRSA; Staphylococcus aureus, MRSA, MRSA 616, Phase II, 1st, read-out: MIC): 64 µg/mL (≈ 183 µM) | MIC (MRSA; Staphylococcus aureus, MRSA, MRSA 616, Phase II, 2nd, read-out: MIC): 64 µg/mL (≈ 183 µM) | MIC (MRSA; Staphylococcus aureus, MRSA, MRSA 622, Phase I, 1st, read-out: MIC): 64 µg/mL (≈ 183 µM) | MIC (MRSA; Staphylococcus aureus, MRSA, MRSA 622, Phase I, 2nd, read-out: MIC): 64 µg/mL (≈ 183 µM) | MIC (MRSA; Staphylococcus aureus, MRSA, MRSA 622, Phase II, 1st, read-out: MIC): 32 µg/mL (≈ 91.6 µM) | MIC (MRSA; Staphylococcus aureus, MRSA, MRSA 622, Phase II, 2nd, read-out: MIC): 32 µg/mL (≈ 91.6 µM) | MIC (MRSA; Staphylococcus aureus, MRSA, MRSA 698, Phase I, 1st, read-out: MIC): 64 µg/mL (≈ 183 µM) | MIC (MRSA; Staphylococcus aureus, MRSA, MRSA 698, Phase I, 2nd, read-out: MIC): 64 µg/mL (≈ 183 µM) | MIC (MRSA; Staphylococcus aureus, MRSA, MRSA 698, Phase II, 1st, read-out: MIC): 8 µg/mL (≈ 22.9 µM) | MIC (MRSA; Staphylococcus aureus, MRSA, MRSA 698, Phase II, 2nd, read-out: MIC): 8 µg/mL (≈ 22.9 µM) | MIC (MRSA; Staphylococcus aureus, MRSA, MRSA 713, Phase I, 1st, read-out: MIC): > 128 µg/mL | MIC (MRSA; Staphylococcus aureus, MRSA, MRSA 713, Phase I, 2nd, read-out: MIC): > 128 µg/mL | MIC (MRSA; Staphylococcus aureus, MRSA, MRSA 718, Phase I, 1st, read-out: MIC): > 128 µg/mL | MIC (MRSA; [2]): > 128 µg/mL | MIC (MRSA; Staphylococcus aureus, MRSA, MRSA 718, Phase II, 1st, read-out: MIC): 64 µg/mL (≈ 183 µM) | MIC (MRSA; Staphylococcus aureus, MRSA, MRSA 718, Phase II, 2nd, read-out: MIC): 64 µg/mL (≈ 183 µM) | MIC (MRSA; Staphylococcus aureus, MRSA, MRSA 728, Phase I, 1st, read-out: MIC): 64 µg/mL (≈ 183 µM) | MIC (MRSA; Staphylococcus aureus, MRSA, MRSA 728, Phase I, 2nd, read-out: MIC): 64 µg/mL (≈ 183 µM) | MIC (MRSA; Staphylococcus aureus, MRSA, MRSA 728, Phase II, 1st, read-out: MIC): 32 µg/mL (≈ 91.6 µM) | MIC (MRSA; Staphylococcus aureus, MRSA, MRSA 728, Phase II, 2nd, read-out: MIC): 32 µg/mL (≈ 91.6 µM) | MIC (MRSA; Staphylococcus aureus, MRSA, MRSA 734, Phase I, 1st, read-out: MIC): > 128 µg/mL | MIC (MRSA; Staphylococcus aureus, MRSA, MRSA 734, Phase I, 2nd, read-out: MIC): > 128 µg/mL | MIC (MRSA; Staphylococcus aureus, MRSA, MRSA 734, Phase II, 1st, read-out: MIC): 64 µg/mL (≈ 183 µM) | MIC (MRSA; Staphylococcus aureus, MRSA, MRSA 734, Phase II, 2nd, read-out: MIC): 64 µg/mL (≈ 183 µM) | MIC (MRSA; Staphylococcus aureus, MRSA, MRSA 741, Phase I, 1st, read-out: MIC): 8 µg/mL (≈ 22.9 µM) | MIC (MRSA; Staphylococcus aureus, MRSA, MRSA 741, Phase I, 2nd, read-out: MIC): 8 µg/mL (≈ 22.9 µM) | MIC (MRSA; Staphylococcus aureus, MRSA, MRSA 741, Phase II, 1st, read-out: MIC): 4 µg/mL (≈ 11.4 µM) | MIC (MRSA; Staphylococcus aureus, MRSA, MRSA 741, Phase II, 2nd, read-out: MIC): 4 µg/mL (≈ 11.4 µM) | MIC (MRSA; [3]): > 128 µg/mL | MIC (MRSA; Staphylococcus aureus, MRSA, MRSA 747, Phase I, 2nd, read-out: MIC): > 128 µg/mL | MIC (MRSA; Staphylococcus aureus, MRSA, MRSA 747, Phase II, 1st, read-out: MIC): 64 µg/mL (≈ 183 µM) | MIC (MRSA; Staphylococcus aureus, MRSA, MRSA 747, Phase II, 2nd, read-out: MIC): 64 µg/mL (≈ 183 µM) | MIC (MRSA; Staphylococcus aureus, MRSA, MRSA 773, Phase I, 1st, read-out: MIC): 64 µg/mL (≈ 183 µM) | MIC (MRSA; Staphylococcus aureus, MRSA, MRSA 773, Phase I, 2nd, read-out: MIC): 64 µg/mL (≈ 183 µM) | MIC (MRSA; Staphylococcus aureus, MRSA, MRSA 773, Phase II, 1st, read-out: MIC): 64 µg/mL (≈ 183 µM) | MIC (MRSA; Staphylococcus aureus, MRSA, MRSA 773, Phase II, 2nd, read-out: MIC): 64 µg/mL (≈ 183 µM) | MIC (MRSA; Staphylococcus aureus, MRSA, MRSA 778, Phase I, 1st, read-out: MIC): > 128 µg/mL | MIC (MRSA; Staphylococcus aureus, MRSA, MRSA 778, Phase I, 2nd, read-out: MIC): > 128 µg/mL | MIC (MRSA; Staphylococcus aureus, MRSA, MRSA 786, Phase I, 1st, read-out: MIC): 32 µg/mL (≈ 91.6 µM) | MIC (MRSA; Staphylococcus aureus, MRSA, MRSA 786, Phase I, 2nd, read-out: MIC): 32 µg/mL (≈ 91.6 µM) | MIC (MRSA; Staphylococcus aureus, MRSA, MRSA 786, Phase II, 1st, read-out: MIC): 32 µg/mL (≈ 91.6 µM) | MIC (MRSA; Staphylococcus aureus, MRSA, MRSA 786, Phase II, 2nd, read-out: MIC): 32 µg/mL (≈ 91.6 µM) | MIC (MRSA; Staphylococcus aureus, MRSA, MRSA 787, Phase I, 1st, read-out: MIC): > 128 µg/mL | MIC (MRSA; Staphylococcus aureus, MRSA, MRSA 787, Phase I, 2nd, read-out: MIC): > 128 µg/mL | MIC (MRSA; Staphylococcus aureus, MRSA, MRSA 787, Phase II, 1st, read-out: MIC): 64 µg/mL (≈ 183 µM) | MIC (MRSA; Staphylococcus aureus, MRSA, MRSA 787, Phase II, 2nd, read-out: MIC): 64 µg/mL (≈ 183 µM) | MIC (MRSA; Staphylococcus aureus, MRSA, MRSA 815, Phase I, 1st, read-out: MIC): 64 µg/mL (≈ 183 µM) | MIC (MRSA; Staphylococcus aureus, MRSA, MRSA 815, Phase I, 2nd, read-out: MIC): 64 µg/mL (≈ 183 µM) | MIC (MRSA; Staphylococcus aureus, MRSA, MRSA 815, Phase II, 1st, read-out: MIC): 32 µg/mL (≈ 91.6 µM) | MIC (MRSA; Staphylococcus aureus, MRSA, MRSA 815, Phase II, 2nd, read-out: MIC): 32 µg/mL (≈ 91.6 µM) | MIC (MRSA; Staphylococcus aureus, MRSA, MRSA 823, Phase I, 1st, read-out: MIC): > 128 µg/mL | MIC (MRSA; Staphylococcus aureus, MRSA, MRSA 823, Phase I, 2nd, read-out: MIC): > 128 µg/mL | MIC (MRSA; Staphylococcus aureus, MRSA, MRSA 844, Phase II, 1st, read-out: MIC): 64 µg/mL (≈ 183 µM) | MIC (MRSA; Staphylococcus aureus, MRSA, MRSA 844, Phase II, 2nd, read-out: MIC): 32 µg/mL (≈ 91.6 µM) | MIC (Escherichia coli; E. coli, 2nd): 4 µg/mL (≈ 11.4 µM) | MIC (Escherichia coli; [4]): 4 µg/mL (≈ 11.4 µM) | MIC (Escherichia coli; Escherichia coli, E. coli, 1st, read-out: MIC): 4 µg/mL (≈ 11.4 µM)

N=C(N/N=C/c1ccc(Cl)cc1)N/N=C/c1ccc(Cl)cc1 [NCL812, 1,3-bis[(E)-(4-chlorophenyl)methyleneamino]guanidine]
MIC (MRSA; [1]): 8 µg/mL (≈ 23.9 µM) | MIC (MRSA; [2]): 8 µg/mL (≈ 23.9 µM) | MIC (MRSA; [3]): 8 µg/mL (≈ 23.9 µM) | MIC (MRSA; Staphylococcus aureus, MRSA, bioassay ranking, MRSA, read-out: MRSA): 3 µg/mL (≈ 8.98 µM) | MIC (μg/ml) at 24 hours, MRSA 2 (MRSA; isolate MRSA 2, 24 hours, 1st and 2nd replicate rows): 2 µg/mL (≈ 5.98 µM) | MIC (μg/ml) at 24 hours, E. coli (Escherichia coli; 24 hours, 1st and 2nd replicate rows): >128 µg/mL | MIC (Escherichia coli; E. coli, 1st): >128 µg/mL | MIC (Escherichia coli; E. coli, 2nd): >128 µg/mL | MIC (Escherichia coli; [4]): > 128 µg/mL | MIC (Escherichia coli; Escherichia coli, read-out: MIC): > 128 µg/mL
